From patent US11304956B2, “Use of 7-bromo-5-(O-chlorophenyl)-3-propoxy-1,2-dihydro-3H-1,4-benzodiazepin-2-one for inhibition of neuropathic pain and seizures of different etiology” (priority 2016, dated 2022)

Legend:
[1] = tested on: thermal tail flick test in rats; experiment: Model of thermal stimulation (tail-flick); assay type: in vivo; settings: n=10
Excerpt: The problem was solved by experimental study of the antinociceptive action of the test compound 1 on the model of NP in rats and on the model of pain with the participation of central mechanisms, in particular, thermal tail flick test in rats. Based on the available data on the positive response of constant pain to anticonvulsants in the acute and paroxysmal phase and considering structure 1, we performed an evaluation of the anticonvulsant action of the compound on models of pentamethylenetetrazol-induced convulsions and seizures caused by maximal electroshock (MES). We have taken into account the possible side reaction (ulcerogenic effect) of the compound in experimental animals, expressed in the formation of defects in the mucous membrane of the gastrointestinal tract or in provocation of already existing peptic ulcer relapses. The probability of ulcers formation of medicinal origin is especially high during administration of non-steroidal anti-inflammatory drugs in high doses and in combination with their long-term use in the form of tablets.
A more pronounced effect was after parenteral administration (see Table 2). Control: solvent (twin, distilled water, pH-corrector). Results of the study of Compound 1 and ketorolac analgesic effects on the model of thermal stimulation (tail-flick) as degree of pain sensitivity threshold increase in relation to the initial level (%), n=10, are given in Table 2.

[2] = ED50 by analgesic effect (preliminary studies / literature data); assay type: in vivo; settings: according to preliminary studies
Protocol: After oral administration of Compound 1 and ketorolac at a dose of 3 mg/kg (which is ED50 according to the literature data for ketorolac), the degree of analgesic effect of the compound exceeded the effect of reference drug both by strength and duration.
To determine the safety of this compound in a chronic trial during long-term administration, it was administered to rats for 28 days at a dose close to ED50 by analgesic effect (0.5 mg/kg).

[3] = tested on: gastric mucosa; experiment: Ulcerogenic effect, subchronic experiment (4 days intragastric); assay type: in vivo, rats; settings: 50 mg/kg intragastrically for 4 days
Protocol: The disadvantage of most analgesics is the fact that they have ulcerogenic effect that interferes with their long-term use. We have studied this side effect of Compound 1 in acute and subchronic experiments. In the first scheme, the compound in the form of an aqueous suspension (Tween-80) was administered in single dose intragastrically to rats, which had previously been deprived of food for 16 hours with free access to water. After 3 hours, the animals were euthanized with a cervical dislocation, then, after dissection of the abdominal cavity, stomachs were ejected and washed in isotonic sodium chloride solution to take out the contents. Damage of stomach was determined visually. In the second scheme, the compound was administered intragastrically for 4 days, after that the extent of the damaging effect on the stomach was determined, as in the previous experiment.
Evaluation of ulcerogenic action was carried out on a 4-score scale:
0 score—no damage; 0.5 score—hyperemia (blood vessels overflow)
1 score—single minor lesions (1-3 point hemorrhages or small ulcers)
2 score—multiple (more than 3) lesions (erosions, pinpoint hemorrhages) or 1 large ulcer
3 score—significant and massive damages (erosions, hemorrhages) of the gastric mucosa with significant size (diameter up to 4 mm)
4 score—gross injuries (massive hemorrhages, erosions, perforations) that cover the entire surface of the gastric mucosa.
The average multiplicity index of damage to the gastric mucosa (the number of ulcers per animal) and the severity of the damage (in scores) were determined.
Compound 1 was administered over a wide dose range—in acute studies—50, 250, 500 and 1000 mg/kg. For the subchronic experiment, the compound was used at a dose of 50 mg/kg.
We also determined the indexes of gastrotoxicity of gastric mucosa under conditions of repeated intragastral administration (for 4 days at a dose of 50 mg/kg). […] The average severity in this group was of 1.4±0.27 score, and the multiplicity was of 1.9±0.64 ulcers per animal. This also indicates the absence of a gastrotoxic effect of this compound on the stomach.

[4] = tested on: carrageenan rat paw edema; experiment: Carrageenan rat paw edema; assay type: in vivo, male white rats
Excerpt: Given the fact that Compound 1 affects not only the painful, but also the inflammatory phase, we undertook an in-depth study of its anti-inflammatory effect. The most common screening method of anti-inflammatory activity is the model of inflammatory edema of the rat hind paw, induced by the subplantar administration of various phlogogenic agents. Under the conditions of carrageenan administration, a sufficiently pronounced edema reaction is observed, which slowly develops and persists for a long time. The maximum size of edema is observed in 2-4 hours.
The anti-inflammatory properties of the test compounds were studied in the model of carrageenan rat paw edema. Male white rats weighing 150-180 g were used in the experiments. Before the administration of the experimental substances, the volumes of the rats' paws subsequently injected by phlogogen were measured. The test compounds and the reference drug—diclofenac-sodium, were administered intraperitoneally 40 minutes prior the inflammation induction. The control group of the rats received an equivalent amount of physiological solution in the emulsion with Tween-80. Acute aseptic inflammation was induced by a 1% aqueous solution of 0.1 ml)—carrageenan injection under plantar aponeurosis of the hind paw of animals of the experimental and control groups (see Trinus F. P. Nonsteroidal anti-inflammatory drugs/F. P. Trinus, N. A. Mohort, B. M. Klebanov//K., 1975, pp. 204-231., Winter C. A. Carrageenin—induced edema in hind paw of the rat as an assay for antiinflammatory drugs/C. A. Winter, E. A. Risley, G. V. Nuss//Proc. Soc. Exp. Biol. Med.—1962.—Vol. 111.—P. 544-547). The inflammatory reaction significance was evaluated after two and four hours after the phlogogen injection. Registration of edema size was carried out by mechanical measurement of foot volume in dynamics according to Zakharevsky A. S. (see Zaharevskiy A. S. The influence of some indole derivatives on the nervous system. Diss. cand. med. science/Zaharevskiy Aleksandr Stepanovich-Minsk.—1969.—78-80 p.). The edema extent was estimated according to the difference in volume between the swollen paw and the paw before inflammation induction. The anti-inflammatory efficacy of the test compounds was determined as the ability of the test compounds to suppress the inflammatory response in the experimental animals compared to the control animals and expressed as a percentage. The calculation was carried out according to the following formula:
The percentage of inflammation suppression=(ΔVκ−ΔV ? /ΔVκ)·100%,
where: ΔVκ—the average increase in the volume of the swollen paw in the control;
ΔV ? —the average increase in the volume of the swollen paw in animals injected by experimental substances.

[5] = tested on: acetic acid "writhing" test; settings: intraperitoneal administration of acetic acid; earlier work of the applicants; cited from earlier work
[6] = 3.0 mg/kg intraperitoneally 40 min before carrageenan
[7] = 10.0 mg/kg intraperitoneally 40 min before carrageenan

SMILES: CCCOC1N=C(c2ccccc2Cl)c2cc(Br)ccc2NC1=O (stereo not shown) [Compound 1, 7-bromo-5-(o-chlorophenyl)-3-propoxy-1,2-dihydro-3H-1,4-benzodiazepin-2-one]
- Degree of pain sensitivity threshold increase in relation to the initial level ([1]; 0.5 mg/kg intraperitoneally, 1 hour): +27.4%
- Degree of pain sensitivity threshold increase in relation to the initial level ([1]; 0.5 mg/kg intraperitoneally, 2 hours): +38.4%
- Degree of pain sensitivity threshold increase in relation to the initial level ([1]; 0.5 mg/kg intraperitoneally, 4 hours): +42.3%
- Degree of pain sensitivity threshold increase in relation to the initial level ([1]; 0.5 mg/kg intraperitoneally, 6 hours): +34.9%
- Degree of pain sensitivity threshold increase in relation to the initial level ([1]; 0.5 mg/kg orally, 1 hour): +13.2%
- Degree of pain sensitivity threshold increase in relation to the initial level ([1]; 0.5 mg/kg orally, 2 hours): +22.4%
- Degree of pain sensitivity threshold increase in relation to the initial level ([1]; 0.5 mg/kg orally, 4 hours): +21.7%
- Degree of pain sensitivity threshold increase in relation to the initial level ([1]; 0.5 mg/kg orally, 6 hours): +8.77%
- Degree of pain sensitivity threshold increase in relation to the initial level ([1]; 3 mg/kg orally, 1 hour): +60.7%
- Degree of pain sensitivity threshold increase in relation to the initial level ([1]; 3 mg/kg orally, 2 hours): +83.3%
- Degree of pain sensitivity threshold increase in relation to the initial level ([1]; 3 mg/kg orally, 4 hours): +65.2%
- Degree of pain sensitivity threshold increase in relation to the initial level ([1]; 3 mg/kg orally, 6 hours): +39.4%
- ED50 [2]: 0.5 mg/kg
- Macroscopic examination of the gastric mucosa [3]: insignificant decrease in the folding of the gastric mucosa and a rather distinct decrease in the amount of mucus
- Multiplicity ([3]; n=10): 1.9±0.64 ulcers per animal
- Number of animals with lesions of the gastric mucosa, score 1 ([3]; n=10): 6
- Number of animals with lesions of the gastric mucosa, score 2 ([3]; n=10): 5
- Number of animals with lesions of the gastric mucosa, score 3 ([3]; n=10): 0
- Number of animals with lesions of the gastric mucosa, score 4 ([3]; n=10): 0
- Average severity ([3]; n=10, 4-score scale): 1.4±0.27 score
- Inhibition of edema in 2 hours (%) [4, 6]: 36.7 ± 4.1 %
- Inhibition of edema in 4 hours (%) [4, 6]: 25.00 ± 2.7 %
- Inhibition of edema in 2 hours (%) [4, 7]: 47.0 ± 4.1 %
- Inhibition of edema in 4 hours (%) [4, 7]: 26.70 ± 5.4 %
- Analgesic activity in the "writhing" test [5]: high analgesic activity
